Experiments:
murine myocytes (C2C12) = assay: β-oxidation of fatty acids in murine myocytes (tritiated palmitate); format: cell-based; conditions: 24 h pretreatment
Source text: The more the induction of the β-oxidation of fatty acids is increased, the greater the stimulating action of the compound according to the invention on metabolism in the muscle cells.
The objective is to measure the amount of tritiated water formed during the mitochondrial oxidation of ^3H-labeled fatty acids.
The C2C12 murine cell line (obtained from ECACC) is cultivated in DMEM medium (Gibco; 41965-039) with addition of 1% L-glutamine (Gibco; 25030), 1% penicillin/streptomycin (VWR; BWSTL0022/100) and 10% decomplemented fetal calf serum (FCS. Gibco; 10270-106).
The cells are seeded on 48-well plates at a density of 25·10^3 cells/well. At confluence, the medium is replaced with a differentiating medium (basal medium with addition of 2% of horse serum (Gibco; 26050-088)), then incubated at 37° C. and 5% CO2 for 4 days in order to differentiate them to myocytes.
After 4 days of differentiation, the cells are treated with the compounds according to the invention added to the culture medium for differentiation. Compound 2 was tested by dose effect from 0.01 to 1 μM, and the others were tested at a dose of 1 μM. The compounds according to the invention are dissolved in dimethylsulfoxide (DMSO, Sigma; D5879). The cells are treated for 24 h at 37° C., 5% CO2. The effect of the compounds according to the invention is compared with the effect of DMSO alone. […]
Secondly, 50 μL of precipitated supernatant is evaporated for 2 days, then the residual tritium is measured in order to evaluate the amount of tritiated palmitate not converted to water.
A standard range is prepared by successive dilutions of the tritiated palmitate/BSA complex in order to determine the amount of palmitate converted to water. For each time of the kinetics, 1 h, 2 h and 3 h, the amount in nanomoles of oxidized palmitate is calculated by linear regression. The areas under the curve are determined for each set of conditions and the results are normalized with DMSO. […]

hPPARalpha = biological target: T1, hPPARalpha (Homo sapiens, UniProt Q07869); assay: PPAR activation: Gal4-hPPARα chimera luciferase transactivation in COS-7 cells, Method 1; format: cell-based; conditions: COS-7, 24 h; for Emax: maximum percentage response relative to the reference phenofibric acid, read-out: hPPARalpha % max
T1 construct: expressed in transfected cells; host or cells: COS-7 (monkey kidney fibroblasts)
T1 sequence (Q07869 239-466 limits assumed): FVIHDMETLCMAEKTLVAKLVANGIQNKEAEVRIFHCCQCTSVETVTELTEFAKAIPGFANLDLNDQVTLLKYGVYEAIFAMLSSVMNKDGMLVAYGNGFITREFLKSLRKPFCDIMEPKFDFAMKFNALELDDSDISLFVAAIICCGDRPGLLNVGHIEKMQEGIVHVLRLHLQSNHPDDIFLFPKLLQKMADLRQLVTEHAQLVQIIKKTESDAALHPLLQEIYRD
Outline: (§1)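 COS-7 cells transiently transfected with Gal4 DBD–human PPAR LBD (DEF domain) chimeras plus Gal4(RE)_TkpGL3 luciferase reporter (1/10 ratio). Compounds applied 24 h at 37 °C in serum-free medium at doses between 10^−5 and […]; luciferase read after lysis, EC50 derived.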

hPPARgamma = biological target: T2, hPPARgamma (Homo sapiens, UniProt P37231); assay: PPAR activation: Gal4-hPPARγ chimera luciferase transactivation in COS-7 cells, Method 1; format: cell-based; conditions: COS-7, 24 h; for Emax: maximum percentage response relative to the reference rosiglitazone, read-out: hPPARgamma % max
T2 construct: expressed in transfected cells; host or cells: COS-7 (monkey kidney fibroblasts)
T2 sequence (P37231 238-503 limits assumed): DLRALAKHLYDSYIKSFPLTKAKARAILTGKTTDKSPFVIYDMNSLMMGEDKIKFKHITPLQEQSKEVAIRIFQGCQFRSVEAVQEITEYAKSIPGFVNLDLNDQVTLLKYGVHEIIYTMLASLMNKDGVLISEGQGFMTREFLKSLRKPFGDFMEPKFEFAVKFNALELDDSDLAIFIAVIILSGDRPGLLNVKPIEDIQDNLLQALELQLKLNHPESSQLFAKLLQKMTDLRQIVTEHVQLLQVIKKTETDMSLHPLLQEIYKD
Outline: as §1

melting point [°C] | EC50 (hPPARalpha) [nM] | Emax (hPPARalpha) [%] | EC50 (hPPARgamma) [nM] | Emax (hPPARgamma) [%] | Compound | β-oxidation of fatty acids in murine myocytes (murine myocytes (C2C12); in dose effect starting from 0.01 μM) | β-oxidation of fatty acids in murine myocytes (murine myocytes (C2C12); at 1 μm)
153 to 154 | 53 | 43 | 60 | 11 | CC(C)(Oc1ccc(CCC(=O)c2ccc(-c3ccc(C(F)(F)F)cc3)s2)c(Cl)c1Cl)C(=O)O [Compound 2, 2-(2,3-dichloro-4-(3-oxo-3-(5-(4-(trifluoromethyl)phenyl)thien-2-yl)propyl)phenoxy)-2-methylpropanoic acid] | significant increase | 
54 to 56 | 125 | 50 |  | 38 | CC(C)(Oc1ccc(CCC(O)c2ccc(-c3ccc(C(F)(F)F)cc3)s2)c(Cl)c1Cl)C(=O)O (stereo not drawn) [Compound 4, 2-(2,3-dichloro-4-(3-hydroxy-3-(5-(4-(trifluoromethyl)phenyl)thien-2-yl)propyl)phenoxy)-2-methylpropanoic acid] |  | significant increase
46 to 48 |  |  |  |  | CC(C)(Oc1ccc(CCC(OCc2ccccc2)c2ccc(-c3ccc(C(F)(F)F)cc3)s2)c(Cl)c1Cl)C(=O)O (stereo not drawn) [Compound 7, 2-(4-(3-(benzyloxy)-3-(5-(4-(trifluoromethyl)phenyl)thien-2-yl)propyl)-2,3-dichlorophenoxy)-2-methylpropanoic acid] |  | 
99 to 101 | 288 | 39 | 1170 | 55 | CC(C)(Oc1ccc(CCC(=O)c2cc(-c3ccc(C(F)(F)F)cc3)cs2)c(Cl)c1Cl)C(=O)O [Compound 11, 2-(2,3-dichloro-4-(3-oxo-3-(4-(4-(trifluoromethyl)phenyl)thien-2-yl)propyl)phenoxy)-2-methylpropanoic acid] |  | significant increase

From US8088819B2, “Derivatives of substituted 3-phenyl-1-(phenylthienyl)propan-1-ones and of 3-phenyl-1-(phenylfuranyl) propan-1-ones, preparation and use” (priority 2006, dated 2012)
